From paper PMC10733463, “Berberine-microbiota interplay: orchestrating gut health through modulation of the gut microbiota and metabolic transformation into bioactive metabolites” (Frontiers in Pharmacology, 2023)

Experiments:
Type in all cases: in vivo, Ross 308 broiler chickens
CD3+ T-cells = test: CD3 immunohistochemistry of duodenal tissue; settings: duodenum, 21 days
Text: The study was undertaken following the guidelines of the ethics committee of the Faculty of Veterinary Medicine and Bioscience Engineering, Ghent University, in accordance with the EU Directive 2010/63/EU. […] They were allotted into 4 groups, with three replicate pens per group each housing 8 chickens. The animals were not vaccinated. Water and commercial starter feed (day 1-12, FARM 1 Mash, Country's Best, […], Belgium) or grower (day 13-21, FARM 2 mash, Country's Best, […], Belgium) were provided ad libitum. […] At day 21, 4 birds per pen were weighted then euthanized by sodium pentobarbital injection for sampling. […] Additionally, ileal and caecal content samples were collected and stored at -20°C for berberine and berberine-derived metabolite quantification. […] Slides for immunohistochemical staining for CD3^+ T-cells were automatically deparaffinized (Shandon […]-Gemini) before antigen retrieval with a pressure cooker in citrate buffer (10 mM, pH 6). Endogenous peroxidase activity was blocked by treating the slides with peroxidase blocking reagent ([…], Dako, Glostrup, Denmark) for 5 min. The presence of T-cells (CD3-positive cell abundance) in duodenal tissue from 21-day old chickens was evaluated using polyclonal primary antibodies against CD3 ([…], Dako, 1:100 dilution, 30 min at room temperature), followed by incubation with a secondary labelled polymer-HRP anti-rabbit antibody (Envision + System-HRP (DAB) ([…]), 30 min at room temperature). Slides were evaluated using the computer-based image analysis program, LAS V4.1. The CD3^+ area percentage in the duodenal tissue was quantified using four representative fields of view per intestinal section (10x objective).

duodenum = test: Intestinal morphology (villus length, crypt depth) in the duodenum; settings: 21 days
Text: The study was undertaken following the guidelines of the ethics committee of the Faculty of Veterinary Medicine and Bioscience Engineering, Ghent University, in accordance with the EU Directive 2010/63/EU. […] They were allotted into 4 groups, with three replicate pens per group each housing 8 chickens. The animals were not vaccinated. Water and commercial starter feed (day 1-12, FARM 1 Mash, Country's Best, […], Belgium) or grower (day 13-21, FARM 2 mash, Country's Best, […], Belgium) were provided ad libitum. […] At day 21, 4 birds per pen were weighted then euthanized by sodium pentobarbital injection for sampling. […] Additionally, ileal and caecal content samples were collected and stored at -20°C for berberine and berberine-derived metabolite quantification. […] 24 h formalin-fixed duodenal intestinal tissue segments were embedded in paraffin wax and sectioned at 5 μm, followed by haematoxylin and eosin staining. Villus length and crypt depth were assessed using a PC-based image analysis system (Leica Application Suite V4, LAS V4.; Leica, Diegem Belgium).

jejunal microbiota = test: 16S rRNA gene sequencing, microbiota composition in the jejunum
caecal microbiota = test: 16S rRNA gene sequencing, microbiota composition in the caecum
[1] = 0.1 g berberine/kg feed vs normal diet, 21 days, LinDA-normalized abundance
[2] = 0.1 g berberine/kg feed, 21 days
[3] = 0.5 g berberine/kg feed vs normal diet, 21 days, LinDA-normalized abundance
[4] = 0.5 g berberine/kg feed, 21 days
[5] = 1 g berberine/kg feed vs normal diet, 21 days, LinDA-normalized abundance

SMILES: COc1ccc2cc3[n+](cc2c1OC)CCc1cc2c(cc1-3)OCO2 [Berberine, Berberine chloride]
- CD3+ area percentage (CD3+ T-cells; 0.1 g berberine/kg feed): 8.39 ± 1.05
- CD3+ area percentage (CD3+ T-cells; 0.5 g berberine/kg feed): 8.89 ± 2.09
- CD3+ area percentage (CD3+ T-cells; 1 g berberine/kg feed): 7.11 ± 2.18
- Crypt depth (duodenum; 0.1 g berberine/kg feed): 114 ± 21 µm
- Villus length (duodenum; 0.1 g berberine/kg feed): 1,678 ± 101 µm
- Villus to crypt ratio (duodenum; 0.1 g berberine/kg feed): 15.30 ± 2.50
- Crypt depth (duodenum; 0.5 g berberine/kg feed): 104 ± 15 µm
- Villus length (duodenum; 0.5 g berberine/kg feed): 1,815 ± 148 µm
- Villus to crypt ratio (duodenum; 0.5 g berberine/kg feed): 17.98 ± 2.53
- Crypt depth (duodenum; 1 g berberine/kg feed): 103 ± 17 µm
- Villus length (duodenum; 1 g berberine/kg feed): 1,820 ± 150 µm
- Villus to crypt ratio (duodenum; 1 g berberine/kg feed): 18.31 ± 3.21
- L2 FC Butyricicoccus, 0.1 vs 0 (jejunal microbiota; [1]): -2.02
- L2 FC Curtobacterium, 0.1 vs 0 (jejunal microbiota; [1]): -2.73
- L2 FC Gordonibacter, 0.1 vs 0 (jejunal microbiota; [1]): -2.71
- Mean relative abundance (%) Butyricicoccus (jejunal microbiota; [2]): 0.22%
- Mean relative abundance (%) Curtobacterium (jejunal microbiota; [2]): 0.01%
- Mean relative abundance (%) Gordonibacter (jejunal microbiota; [2]): 0.01%
- Mean relative abundance of Bacillaceae (jejunal microbiota; [2]): 0.03%
- Mean relative abundance of Burkholderiaceae (jejunal microbiota; [2]): 6.47%
- Mean relative abundance of Peptostreptococcaceae (jejunal microbiota; [2]): 6.37%
- Mean relative abundance of Pseudomonadaceae (jejunal microbiota; [2]): 1.71%
- Mean relative abundance of Ruminococcaceae (jejunal microbiota; [2]): 3.73%
- Mean relative abundance of uncultured bacterium family (Tenericutes, Mollicutes RF39) (jejunal microbiota; [2]): 0.01%
- L2FC of LinDA-normalized abundance of Bacillaceae (jejunal microbiota; 0.1 vs 0 g berberine/kg feed): 3.45
- L2FC of LinDA-normalized abundance of Burkholderiaceae (jejunal microbiota; 0.1 vs 0 g berberine/kg feed): 3.82
- L2FC of LinDA-normalized abundance of Peptostreptococcaceae (jejunal microbiota; 0.1 vs 0 g berberine/kg feed): 3.90
- L2FC of LinDA-normalized abundance of Pseudomonadaceae (jejunal microbiota; 0.1 vs 0 g berberine/kg feed): 3.67
- L2FC of LinDA-normalized abundance of Ruminococcaceae (jejunal microbiota; 0.1 vs 0 g berberine/kg feed): 2.19
- L2FC of LinDA-normalized abundance of uncultured bacterium family (Tenericutes, Mollicutes RF39) (jejunal microbiota; 0.1 vs 0 g berberine/kg feed): 2.35
- L2 FC Butyricicoccus, 0.5 vs 0 (jejunal microbiota; [3]): -0.78
- L2 FC Curtobacterium, 0.5 vs 0 (jejunal microbiota; [3]): -1.13
- L2 FC Gordonibacter, 0.5 vs 0 (jejunal microbiota; [3]): -2.33
- Mean relative abundance (%) Butyricicoccus (jejunal microbiota; [4]): 0.34%
- Mean relative abundance (%) Curtobacterium (jejunal microbiota; [4]): 0.03%
- Mean relative abundance (%) Gordonibacter (jejunal microbiota; [4]): 0.00%
- Mean relative abundance of Bacillaceae (jejunal microbiota; [4]): 0.04%
- Mean relative abundance of Burkholderiaceae (jejunal microbiota; [4]): 5.60%
- Mean relative abundance of Peptostreptococcaceae (jejunal microbiota; [4]): 0.52%
- Mean relative abundance of Pseudomonadaceae (jejunal microbiota; [4]): 0.35%
- Mean relative abundance of Ruminococcaceae (jejunal microbiota; [4]): 4.52%
- Mean relative abundance of uncultured bacterium family (Tenericutes, Mollicutes RF39) (jejunal microbiota; [4]): 0.02%
- L2FC of LinDA-normalized abundance of Bacillaceae (jejunal microbiota; 0.5 vs 0 g berberine/kg feed): 1.43
- L2FC of LinDA-normalized abundance of Burkholderiaceae (jejunal microbiota; 0.5 vs 0 g berberine/kg feed): 0.67
- L2FC of LinDA-normalized abundance of Peptostreptococcaceae (jejunal microbiota; 0.5 vs 0 g berberine/kg feed): -1.12
- L2FC of LinDA-normalized abundance of Pseudomonadaceae (jejunal microbiota; 0.5 vs 0 g berberine/kg feed): 0.14
- L2FC of LinDA-normalized abundance of Ruminococcaceae (jejunal microbiota; 0.5 vs 0 g berberine/kg feed): -0.14
- L2FC of LinDA-normalized abundance of uncultured bacterium family (Tenericutes, Mollicutes RF39) (jejunal microbiota; 0.5 vs 0 g berberine/kg feed): 0.60
- L2 FC Butyricicoccus, 1 vs 0 (jejunal microbiota; [5]): -0.38
- L2 FC Curtobacterium, 1 vs 0 (jejunal microbiota; [5]): -2.09
- L2 FC Gordonibacter, 1 vs 0 (jejunal microbiota; [5]): -1.79
- Mean relative abundance (%) Butyricicoccus (jejunal microbiota; 1 g berberine/kg feed, 21 days): 0.84%
- Mean relative abundance (%) Curtobacterium (jejunal microbiota; 1 g berberine/kg feed, 21 days): 0.06%
- Mean relative abundance (%) Gordonibacter (jejunal microbiota; 1 g berberine/kg feed, 21 days): 0.02%
- Mean relative abundance of Bacillaceae (jejunal microbiota; 1 g berberine/kg feed, 21 days): 0.04%
- Mean relative abundance of Burkholderiaceae (jejunal microbiota; 1 g berberine/kg feed, 21 days): 3.55%
- Mean relative abundance of Peptostreptococcaceae (jejunal microbiota; 1 g berberine/kg feed, 21 days): 0.26%
- Mean relative abundance of Pseudomonadaceae (jejunal microbiota; 1 g berberine/kg feed, 21 days): 0.35%
- Mean relative abundance of Ruminococcaceae (jejunal microbiota; 1 g berberine/kg feed, 21 days): 10.54%
- Mean relative abundance of uncultured bacterium family (Tenericutes, Mollicutes RF39) (jejunal microbiota; 1 g berberine/kg feed, 21 days): 0.00%
- L2FC of LinDA-normalized abundance of Bacillaceae (jejunal microbiota; 1 vs 0 g berberine/kg feed): 0.80
- L2FC of LinDA-normalized abundance of Burkholderiaceae (jejunal microbiota; 1 vs 0 g berberine/kg feed): 1.37
- L2FC of LinDA-normalized abundance of Peptostreptococcaceae (jejunal microbiota; 1 vs 0 g berberine/kg feed): -3.21
- L2FC of LinDA-normalized abundance of Pseudomonadaceae (jejunal microbiota; 1 vs 0 g berberine/kg feed): 1.01
- L2FC of LinDA-normalized abundance of Ruminococcaceae (jejunal microbiota; 1 vs 0 g berberine/kg feed): 1.51
- L2FC of LinDA-normalized abundance of uncultured bacterium family (Tenericutes, Mollicutes RF39) (jejunal microbiota; 1 vs 0 g berberine/kg feed): 0.00
- Abundance of phylum Actinobacteria (jejunal microbiota; high dose (1 g/kg feed), p = 0.021): reduction
- Abundance of phylum Actinobacteria (jejunal microbiota; low dose (0.1 g/kg feed), p < 0.001): reduction
- L2 FC ASF356, 0.1 vs 0 (caecal microbiota; [1]): 3.88
- L2 FC CHKCI001, 0.1 vs 0 (caecal microbiota; [1]): 1.33
- L2 FC Family_ Lachnospiraceae, 0.1 vs 0 (caecal microbiota; [1]): -0.10
- L2 FC Fusicatenibacter, 0.1 vs 0 (caecal microbiota; [1]): 1.41
- L2 FC uncultured genus of Peptostreptococcaceae, 0.1 vs 0 (caecal microbiota; [1]): 0.26
- Mean relative abundance (%) ASF356 (caecal microbiota; [2]): 0.40%
- Mean relative abundance (%) CHKCI001 (caecal microbiota; [2]): 0.02%
- Mean relative abundance (%) Family_ Lachnospiraceae (caecal microbiota; [2]): 2.08%
- Mean relative abundance (%) Fusicatenibacter (caecal microbiota; [2]): 0.06%
- Mean relative abundance (%) uncultured genus of Peptostreptococcaceae (caecal microbiota; [2]): 0.63%
- Mean relative abundance of Peptostreptococcaceae (caecal microbiota; [2]): 0.66%
- L2FC of LinDA-normalized abundance of Peptostreptococcaceae (caecal microbiota; 0.1 vs 0 g berberine/kg feed): 0.02
- L2 FC ASF356, 0.5 vs 0 (caecal microbiota; [3]): 4.47
- L2 FC CHKCI001, 0.5 vs 0 (caecal microbiota; [3]): 2.34
- L2 FC Family_ Lachnospiraceae, 0.5 vs 0 (caecal microbiota; [3]): 1.25
- L2 FC Fusicatenibacter, 0.5 vs 0 (caecal microbiota; [3]): 3.47
- L2 FC uncultured genus of Peptostreptococcaceae, 0.5 vs 0 (caecal microbiota; [3]): -0.52
- Mean relative abundance (%) ASF356 (caecal microbiota; [4]): 0.38%
- Mean relative abundance (%) CHKCI001 (caecal microbiota; [4]): 0.03%
- Mean relative abundance (%) Family_ Lachnospiraceae (caecal microbiota; [4]): 5.61%
- Mean relative abundance (%) Fusicatenibacter (caecal microbiota; [4]): 0.32%
- Mean relative abundance (%) uncultured genus of Peptostreptococcaceae (caecal microbiota; [4]): 0.54%
- Mean relative abundance of Peptostreptococcaceae (caecal microbiota; [4]): 0.56%
- L2FC of LinDA-normalized abundance of Peptostreptococcaceae (caecal microbiota; 0.5 vs 0 g berberine/kg feed): -0.55
- L2 FC ASF356, 1 vs 0 (caecal microbiota; [5]): 3.78
- L2 FC CHKCI001, 1 vs 0 (caecal microbiota; [5]): 1.13
- L2 FC Family_ Lachnospiraceae, 1 vs 0 (caecal microbiota; [5]): 0.72
- L2 FC Fusicatenibacter, 1 vs 0 (caecal microbiota; [5]): 2.41
- L2 FC uncultured genus of Peptostreptococcaceae, 1 vs 0 (caecal microbiota; [5]): -8.12
- Mean relative abundance (%) ASF356 (caecal microbiota; 1 g berberine/kg feed, 21 days): 0.32%
- Mean relative abundance (%) CHKCI001 (caecal microbiota; 1 g berberine/kg feed, 21 days): 0.02%
- Mean relative abundance (%) Family_ Lachnospiraceae (caecal microbiota; 1 g berberine/kg feed, 21 days): 5.61%
- Mean relative abundance (%) Fusicatenibacter (caecal microbiota; 1 g berberine/kg feed, 21 days): 0.12%
- Mean relative abundance (%) uncultured genus of Peptostreptococcaceae (caecal microbiota; 1 g berberine/kg feed, 21 days): 0.00%
- Mean relative abundance of Peptostreptococcaceae (caecal microbiota; 1 g berberine/kg feed, 21 days): 0.00%
- L2FC of LinDA-normalized abundance of Peptostreptococcaceae (caecal microbiota; 1 vs 0 g berberine/kg feed): -7.85
- Observed number of OTUs (caecal microbiota; lowest concentration (0.1 g/kg feed), p = 0.041): significantly increased
- Bacterial richness (Observed number of OTUs) (caecal microbiota; middle concentration (0.5 g/kg feed), p = 0.087): tended to increase
